According to US5612337A, “Substituted morpholine derivatives and their use as therapeutic agents” (Merck Sharp & Dohme Limited, priority 1993, dated 1997):

Test: stability of crystals of the hydrochloride salt
Assay type: physicochemical
Protocol: Dimethylamine (approximately 10 ml) was condensed at -80° C. in a pressure tube and to this was added a solution of N-(4-azidobut-2-ynyl)-2-(R)-(1-(R)-(3,5-bis(trifluoromethyl) phenyl)ethoxy)-3-(S)-(4-fluorophenyl)morpholine (3.2 g) in dioxan (15 ml). The tube was sealed and the solution was heated at 90° C. for 16 h. The solution was evaporated to dryness and the residue chromatographed on silica gel (eluting with 5% methanol in dichloromethane containing 0.25% ammonia (SG. 0.88)) and the fractions containing the desired product were evaporated in vacuo to give the title compound. To a solution of this residue in diethyl ether was added 1M-HCl in methanol. The solution was evaporated to dryness and redissolved in diethyl ether to give crystals of the title compound hydrochloride salt m.p. 194°-198° C., [α]^22D +65.0° (C=0.5, H2 O).

Measured: stability of crystals

C[C@@H](O[C@H]1OCCN(Cc2nn[nH]c2CN(C)C)[C@H]1c1ccc(F)cc1)c1cc(C(F)(F)F)cc(C(F)(F)F)c1 [Example 12]
stable for at least five days: at 40° C. | at 40° C./75% relative humidity | at 80° C. | at 2000LUX
